Experimental data from patent publication US11278515B2, “Composition for improvement of sleep or for prevention or treatment of sleep disorders, containing beta-lapachone” (AJOU UNIVERSITY INDUSTRY-ACADEMIC COOPERATION FOUNDATION, priority 2016, dated 2022).

Tested on: mice
Test: pentobarbital-induced sleep test in mice (sleep latency and total sleeping time)
Assay type: in vivo
Conditions: 30 minutes before pentobarbital 45 mg/kg i.p.
Description: A sleep disorder refers to syndromes in which one cannot fall asleep well and the total sleeping time is short. In order to confirm the effect of improving the sleep quality of beta-lapachone, mice were purchased from Orient Bio Co. Beta-lapachone (Sigma Aldrich) was administered once intraperitoneally or orally to mice at a dose of 0.03, 0.1, 0.3, or 1 mg/kg by concentration, respectively, 30 minutes before induction of sleep, and 0.9% physiological saline was administered to the control mice, and 1 mg/kg of diazepam (MYUNG IN Pharm. Co.), most popular used sleeping pill, was administered intraperitoneally or orally to the positive control mice. 45 mg/kg of pentobarbital ([…] Pharm. Co., Ltd.), a commercially used sedative and sleeping pill, was intraperitoneally administered to mice to induce sleeping after 30 minutes of the above administration.

CC1(C)CCC2=C(O1)c1ccccc1C(=O)C2=O [beta-lapachone]
sleep latency (single intraperitoneal administration at 0.03, 0.1, 0.3 or 1 mg/kg, FIG. 1): shortened in a concentration-dependent manner
total sleeping time (single intraperitoneal administration at 0.03, 0.1, 0.3 or 1 mg/kg, FIG. 2): increased in a concentration-dependent manner
sleep latency (single oral administration at 0.03, 0.1, 0.3 or 1 mg/kg, FIG. 3): shortened in a concentration-dependent manner
total sleeping time (single oral administration at 0.03, 0.1, 0.3 or 1 mg/kg, FIG. 4): increased in a concentration-dependent manner
